# Test results as given in PubChem BioAssay (NCI).
#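 The compound was tested at five concentrations on cells cultured in 96-well plates, with a 48-hour exposure period. GI50 = concentration required for 50% inhibition of growth. Definition used: TGI = concentration required for complete inhibition of growth.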
# Legend:
# Experiment in all cases: NCI-60 cell line screen, 48 h
# HCC-2998 colon = test system: HCC-2998 colon
# A498 renal = test system: A498 renal
# TK-10 renal = test system: TK-10 renal
# DU-145 prostate = test system: DU-145 prostate
# MDA-MB-231 breast = test system: MDA-MB-231 breast
# OVCAR-3 ovarian = test system: OVCAR-3 ovarian
# SR leukemia = test system: SR leukemia
# HS 578T breast = test system: HS 578T breast
# COLO 205 colon = test system: COLO 205 colon
# NCI/ADR-RES ovarian = test system: NCI/ADR-RES ovarian
# T-47D breast = test system: T-47D breast
# IGROV1 ovarian = test system: IGROV1 ovarian
# 786-0 renal = test system: 786-0 renal
# K-562 leukemia = test system: K-562 leukemia
# LOX IMVI melanoma = test system: LOX IMVI melanoma
# MOLT-4 leukemia = test system: MOLT-4 leukemia
# NCI-H522 lung = test system: NCI-H522 lung
# SF-539 CNS = test system: SF-539 CNS
# SN12C renal = test system: SN12C renal
# SF-295 CNS = test system: SF-295 CNS
# BT-549 breast = test system: BT-549 breast
# SW-620 colon = test system: SW-620 colon
# HT29 colon = test system: HT29 colon
# OVCAR-5 ovarian = test system: OVCAR-5 ovarian
# CCRF-CEM leukemia = test system: CCRF-CEM leukemia
# RXF 393 renal = test system: RXF 393 renal
# NCI-H226 lung = test system: NCI-H226 lung
# HOP-92 NSCLC = test system: HOP-92 NSCLC
smiles,measurement,setting,value
COc1ccc(/C=C2\CC(C)CC3C2=NN(C(C)=O)C3c2ccc(OC)cc2)cc1 (stereo not given),GI50,HCC-2998 colon,17.5 µM
same,TGI,HCC-2998 colon,40 µM
same,GI50,A498 renal,17 µM
same,TGI,A498 renal,33.1 µM
same,GI50,TK-10 renal,30.3 µM
same,TGI,TK-10 renal,> 100 µM
same,GI50,DU-145 prostate,25.7 µM
same,TGI,DU-145 prostate,78.1 µM
same,GI50,MDA-MB-231 breast,16.4 µM
same,TGI,MDA-MB-231 breast,35.7 µM
same,GI50,OVCAR-3 ovarian,18.7 µM
same,TGI,OVCAR-3 ovarian,42.4 µM
same,GI50,SR leukemia,20.4 µM
same,TGI,SR leukemia,50.5 µM
same,GI50,HS 578T breast,22.1 µM
same,TGI,HS 578T breast,60.6 µM
same,GI50,COLO 205 colon,25.7 µM
same,TGI,COLO 205 colon,92.5 µM
same,GI50,NCI/ADR-RES ovarian,21.3 µM
same,TGI,NCI/ADR-RES ovarian,73.2 µM
same,GI50,T-47D breast,25.7 µM
same,TGI,T-47D breast,> 100 µM
same,GI50,IGROV1 ovarian,31.6 µM
same,TGI,IGROV1 ovarian,> 100 µM
same,GI50,786-0 renal,18.8 µM
same,TGI,786-0 renal,37.7 µM
same,GI50,K-562 leukemia,10.1 µM
same,TGI,K-562 leukemia,96.3 µM
same,GI50,LOX IMVI melanoma,17.6 µM
same,TGI,LOX IMVI melanoma,38.3 µM
same,GI50,MOLT-4 leukemia,16.1 µM
same,TGI,MOLT-4 leukemia,50.1 µM
same,GI50,NCI-H522 lung,21.5 µM
same,TGI,NCI-H522 lung,83.9 µM
same,GI50,SF-539 CNS,19 µM
same,TGI,SF-539 CNS,38.1 µM
same,GI50,SN12C renal,18.4 µM
same,TGI,SN12C renal,38.7 µM
same,GI50,SF-295 CNS,18.2 µM
same,TGI,SF-295 CNS,41.8 µM
same,GI50,BT-549 breast,23 µM
same,TGI,BT-549 breast,55.9 µM
same,GI50,SW-620 colon,21.8 µM
same,TGI,SW-620 colon,59 µM
same,GI50,HT29 colon,9.08 µM
same,TGI,HT29 colon,40.2 µM
same,GI50,OVCAR-5 ovarian,21.6 µM
same,TGI,OVCAR-5 ovarian,48.2 µM
same,GI50,CCRF-CEM leukemia,22 µM
same,TGI,CCRF-CEM leukemia,> 100 µM
same,GI50,RXF 393 renal,27.2 µM
same,TGI,RXF 393 renal,> 100 µM
same,GI50,NCI-H226 lung,16.5 µM
same,TGI,NCI-H226 lung,39.1 µM
same,GI50,HOP-92 NSCLC,17.2 µM
